Reference: ChEMBL document CHEMBL2150974 (J Med Chem, 2012)
Activity calls are given as the source filed them. No cut-off for these calls is given here.

Tests used:
[1] = target: T1, Mitogen-activated protein kinase 14 (Homo sapiens, UniProt Q16539); assay: Inhibition of p38alpha by immunosorbent based kinase assay
[2] = target: T1, Mitogen-activated protein kinase 14; assay: Inhibition of p38alpha-dependent TNFalpha production in human whole blood
[3] = target: RAC-alpha serine/threonine-protein kinase (Homo sapiens) (UniProt P31749); assay: Inhibition of AKT1 at 10 uM
Sequence of RAC-alpha serine/threonine-protein kinase (Homo sapiens) (P31749 whole entry): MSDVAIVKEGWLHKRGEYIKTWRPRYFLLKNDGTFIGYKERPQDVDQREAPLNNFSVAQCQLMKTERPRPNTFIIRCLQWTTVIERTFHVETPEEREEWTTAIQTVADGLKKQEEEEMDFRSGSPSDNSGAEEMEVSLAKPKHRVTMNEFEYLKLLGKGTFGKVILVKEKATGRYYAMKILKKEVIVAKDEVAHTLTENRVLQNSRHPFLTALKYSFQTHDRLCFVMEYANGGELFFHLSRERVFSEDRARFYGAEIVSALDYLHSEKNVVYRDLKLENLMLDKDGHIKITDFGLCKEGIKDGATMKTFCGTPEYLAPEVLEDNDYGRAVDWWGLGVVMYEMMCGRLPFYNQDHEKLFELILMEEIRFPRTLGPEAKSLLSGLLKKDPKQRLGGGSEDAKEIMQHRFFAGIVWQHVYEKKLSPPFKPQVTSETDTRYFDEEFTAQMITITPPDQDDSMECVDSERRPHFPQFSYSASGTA

[4] = target: T2, Serine/threonine-protein kinase PLK4 (Homo sapiens) (UniProt O00444); assay: Inhibition of SAK at 10 uM
T2 sequence (whole entry): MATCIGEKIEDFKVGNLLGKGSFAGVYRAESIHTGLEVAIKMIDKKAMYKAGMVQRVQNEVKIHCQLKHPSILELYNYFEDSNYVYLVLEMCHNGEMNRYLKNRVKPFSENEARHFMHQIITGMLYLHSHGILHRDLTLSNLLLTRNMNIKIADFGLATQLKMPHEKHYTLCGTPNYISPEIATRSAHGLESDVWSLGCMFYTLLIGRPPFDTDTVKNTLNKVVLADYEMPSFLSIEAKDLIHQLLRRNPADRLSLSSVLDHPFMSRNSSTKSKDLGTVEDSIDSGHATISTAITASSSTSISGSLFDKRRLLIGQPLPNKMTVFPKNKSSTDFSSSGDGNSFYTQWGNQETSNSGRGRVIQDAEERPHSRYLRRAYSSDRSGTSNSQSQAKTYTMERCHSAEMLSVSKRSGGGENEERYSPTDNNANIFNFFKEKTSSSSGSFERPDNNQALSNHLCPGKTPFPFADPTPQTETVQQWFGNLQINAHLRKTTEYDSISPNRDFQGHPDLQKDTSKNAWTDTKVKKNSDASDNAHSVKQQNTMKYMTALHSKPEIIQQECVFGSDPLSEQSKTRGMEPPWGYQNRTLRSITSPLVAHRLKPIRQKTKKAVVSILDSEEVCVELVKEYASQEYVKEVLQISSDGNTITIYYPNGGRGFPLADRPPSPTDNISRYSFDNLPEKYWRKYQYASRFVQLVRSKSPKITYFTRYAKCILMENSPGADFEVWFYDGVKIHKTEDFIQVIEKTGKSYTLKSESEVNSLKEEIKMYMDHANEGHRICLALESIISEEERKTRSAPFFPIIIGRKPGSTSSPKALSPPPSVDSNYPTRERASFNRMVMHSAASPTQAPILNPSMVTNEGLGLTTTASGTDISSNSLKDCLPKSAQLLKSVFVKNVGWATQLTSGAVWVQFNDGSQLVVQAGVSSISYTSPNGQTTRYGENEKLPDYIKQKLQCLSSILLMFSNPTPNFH

[5] = target: T3, NUAK family SNF1-like kinase 1 (Homo sapiens) (UniProt O60285); assay: Inhibition of ARK5 at 10 uM
T3 sequence (whole entry): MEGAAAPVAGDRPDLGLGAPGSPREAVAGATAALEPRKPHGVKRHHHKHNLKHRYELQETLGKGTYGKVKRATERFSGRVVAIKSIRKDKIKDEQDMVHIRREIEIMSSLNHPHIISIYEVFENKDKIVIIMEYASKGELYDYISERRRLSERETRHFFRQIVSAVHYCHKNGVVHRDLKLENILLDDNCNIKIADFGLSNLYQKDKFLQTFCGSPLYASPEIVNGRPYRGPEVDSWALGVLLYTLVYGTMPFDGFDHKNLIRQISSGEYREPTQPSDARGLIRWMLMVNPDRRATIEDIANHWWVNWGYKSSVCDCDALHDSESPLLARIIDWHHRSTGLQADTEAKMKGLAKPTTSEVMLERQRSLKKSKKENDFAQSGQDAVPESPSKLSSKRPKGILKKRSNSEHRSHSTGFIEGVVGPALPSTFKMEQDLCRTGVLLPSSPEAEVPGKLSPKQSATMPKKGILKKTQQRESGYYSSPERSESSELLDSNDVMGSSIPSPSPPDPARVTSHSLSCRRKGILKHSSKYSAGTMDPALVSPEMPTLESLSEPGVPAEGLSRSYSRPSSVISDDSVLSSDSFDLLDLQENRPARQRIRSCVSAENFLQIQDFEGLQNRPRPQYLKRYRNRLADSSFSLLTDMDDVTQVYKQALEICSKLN

[6] = target: BDNF/NT-3 growth factors receptor (Homo sapiens) (UniProt Q16620); assay: Inhibition of TRKB at 10 uM
Sequence of BDNF/NT-3 growth factors receptor (Homo sapiens) (Q16620 32-822 limits assumed): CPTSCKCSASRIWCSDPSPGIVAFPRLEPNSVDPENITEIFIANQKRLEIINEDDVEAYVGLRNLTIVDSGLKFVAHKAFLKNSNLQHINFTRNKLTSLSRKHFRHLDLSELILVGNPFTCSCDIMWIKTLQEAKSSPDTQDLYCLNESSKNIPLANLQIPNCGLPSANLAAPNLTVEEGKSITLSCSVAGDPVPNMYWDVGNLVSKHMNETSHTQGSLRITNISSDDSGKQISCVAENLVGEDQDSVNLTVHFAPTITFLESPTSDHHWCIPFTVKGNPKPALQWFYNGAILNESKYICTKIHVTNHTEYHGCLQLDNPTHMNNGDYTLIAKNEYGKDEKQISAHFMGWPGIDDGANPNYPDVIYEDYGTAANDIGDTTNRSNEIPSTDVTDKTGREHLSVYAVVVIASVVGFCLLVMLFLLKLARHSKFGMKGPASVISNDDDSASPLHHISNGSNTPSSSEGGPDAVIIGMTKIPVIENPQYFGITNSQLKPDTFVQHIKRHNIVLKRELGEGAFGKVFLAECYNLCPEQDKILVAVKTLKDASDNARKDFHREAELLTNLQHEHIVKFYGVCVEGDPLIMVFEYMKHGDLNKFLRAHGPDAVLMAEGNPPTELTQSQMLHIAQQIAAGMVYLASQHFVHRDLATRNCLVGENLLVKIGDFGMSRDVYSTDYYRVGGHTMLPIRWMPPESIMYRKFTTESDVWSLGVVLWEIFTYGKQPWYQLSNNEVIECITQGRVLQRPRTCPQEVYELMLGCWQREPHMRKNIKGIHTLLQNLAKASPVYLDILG

[7] = target: Aurora kinase B (Homo sapiens) (UniProt Q96GD4); assay: Inhibition of AuroraB at 10 uM
Sequence of Aurora kinase B (Homo sapiens) (Q96GD4 whole entry): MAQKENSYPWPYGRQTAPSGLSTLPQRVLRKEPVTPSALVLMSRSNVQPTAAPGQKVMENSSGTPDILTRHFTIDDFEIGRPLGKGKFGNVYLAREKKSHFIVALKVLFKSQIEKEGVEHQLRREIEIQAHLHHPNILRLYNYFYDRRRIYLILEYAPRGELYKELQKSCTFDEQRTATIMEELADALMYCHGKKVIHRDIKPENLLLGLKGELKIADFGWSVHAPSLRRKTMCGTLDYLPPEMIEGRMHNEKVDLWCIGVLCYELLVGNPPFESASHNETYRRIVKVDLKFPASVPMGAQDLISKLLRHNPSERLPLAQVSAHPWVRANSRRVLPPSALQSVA

[8] = target: Proto-oncogene tyrosine-protein kinase Src (Homo sapiens) (UniProt P12931); assay: Inhibition of SRC at 10 uM
[9] = test system: Serine/threonine-protein kinase B-raf (Homo sapiens), P15056 [V600E]; assay: Inhibition of BRAF V600E mutant at 10 uM
Sequence of Serine/threonine-protein kinase B-raf (Homo sapiens), P15056 [V600E] (P15056 whole entry V600E): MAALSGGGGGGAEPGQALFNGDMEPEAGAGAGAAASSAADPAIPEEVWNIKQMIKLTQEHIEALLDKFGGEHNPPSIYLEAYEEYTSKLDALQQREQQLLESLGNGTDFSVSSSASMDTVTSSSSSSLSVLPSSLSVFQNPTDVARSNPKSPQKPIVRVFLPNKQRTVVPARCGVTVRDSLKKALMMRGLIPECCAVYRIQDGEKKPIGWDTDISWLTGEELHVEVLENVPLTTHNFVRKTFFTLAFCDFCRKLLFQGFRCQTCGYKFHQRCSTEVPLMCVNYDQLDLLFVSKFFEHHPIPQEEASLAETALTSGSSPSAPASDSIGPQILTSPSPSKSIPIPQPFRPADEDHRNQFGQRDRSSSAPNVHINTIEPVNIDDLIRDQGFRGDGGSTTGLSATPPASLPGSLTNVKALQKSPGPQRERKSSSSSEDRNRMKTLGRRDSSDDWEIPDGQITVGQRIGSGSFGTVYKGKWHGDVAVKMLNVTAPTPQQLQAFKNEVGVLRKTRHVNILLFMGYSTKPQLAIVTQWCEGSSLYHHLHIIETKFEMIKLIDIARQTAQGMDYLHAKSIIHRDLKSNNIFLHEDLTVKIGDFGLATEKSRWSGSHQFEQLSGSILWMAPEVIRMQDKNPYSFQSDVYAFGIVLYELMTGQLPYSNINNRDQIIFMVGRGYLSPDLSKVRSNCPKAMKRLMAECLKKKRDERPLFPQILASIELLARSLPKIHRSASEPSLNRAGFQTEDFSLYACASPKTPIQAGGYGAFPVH

[10] = target: Vascular endothelial growth factor receptor 2 (Homo sapiens) (UniProt P35968); assay: Inhibition of VEGFR2 at 10 uM
[11] = target: Insulin receptor (Homo sapiens) (UniProt P06213); assay: Inhibition of INSR at 10 uM
[12] = target: Insulin-like growth factor 1 receptor (Homo sapiens) (UniProt P08069); assay: Inhibition of IGF1R at 10 uM
[13] = target: Hepatocyte growth factor receptor (Homo sapiens) (UniProt P08581); assay: Inhibition of MET at 10 uM
Sequence of Hepatocyte growth factor receptor (Homo sapiens) (P08581 whole entry): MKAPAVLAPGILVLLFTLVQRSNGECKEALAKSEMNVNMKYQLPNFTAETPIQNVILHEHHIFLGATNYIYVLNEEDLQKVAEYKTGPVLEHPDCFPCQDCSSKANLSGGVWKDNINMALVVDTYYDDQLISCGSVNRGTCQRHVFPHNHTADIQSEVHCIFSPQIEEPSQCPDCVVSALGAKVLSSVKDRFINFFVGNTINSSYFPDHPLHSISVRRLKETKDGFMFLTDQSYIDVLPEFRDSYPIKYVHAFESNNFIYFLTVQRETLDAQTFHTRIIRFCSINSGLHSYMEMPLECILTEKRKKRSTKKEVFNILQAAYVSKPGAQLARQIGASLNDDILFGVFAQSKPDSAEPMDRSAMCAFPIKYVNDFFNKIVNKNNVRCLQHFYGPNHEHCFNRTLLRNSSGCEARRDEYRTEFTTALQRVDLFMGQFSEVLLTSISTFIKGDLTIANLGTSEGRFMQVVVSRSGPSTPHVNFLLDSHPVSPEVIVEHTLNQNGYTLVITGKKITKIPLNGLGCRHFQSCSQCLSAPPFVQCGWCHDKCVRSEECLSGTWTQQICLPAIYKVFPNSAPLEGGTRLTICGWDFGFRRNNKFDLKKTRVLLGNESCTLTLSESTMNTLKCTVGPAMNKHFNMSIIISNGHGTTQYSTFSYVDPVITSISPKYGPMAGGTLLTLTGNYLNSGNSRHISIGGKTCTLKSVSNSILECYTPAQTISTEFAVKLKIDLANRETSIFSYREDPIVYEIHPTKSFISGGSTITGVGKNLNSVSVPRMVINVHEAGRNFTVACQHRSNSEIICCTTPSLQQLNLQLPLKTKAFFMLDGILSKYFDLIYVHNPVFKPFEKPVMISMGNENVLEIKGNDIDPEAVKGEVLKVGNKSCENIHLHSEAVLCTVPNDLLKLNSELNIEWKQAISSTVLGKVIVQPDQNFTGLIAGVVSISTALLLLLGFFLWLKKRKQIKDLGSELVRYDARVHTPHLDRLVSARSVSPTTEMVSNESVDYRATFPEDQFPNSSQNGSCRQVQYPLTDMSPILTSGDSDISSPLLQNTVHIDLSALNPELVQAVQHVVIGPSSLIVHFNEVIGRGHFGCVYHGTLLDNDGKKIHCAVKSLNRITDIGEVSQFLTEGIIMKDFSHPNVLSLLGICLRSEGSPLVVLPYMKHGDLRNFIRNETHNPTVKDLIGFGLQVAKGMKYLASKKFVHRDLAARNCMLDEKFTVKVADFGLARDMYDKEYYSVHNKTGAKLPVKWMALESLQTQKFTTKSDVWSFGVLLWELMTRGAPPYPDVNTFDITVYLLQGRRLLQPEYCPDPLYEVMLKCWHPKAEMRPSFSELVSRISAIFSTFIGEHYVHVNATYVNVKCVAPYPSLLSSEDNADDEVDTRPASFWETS

[14] = target: Focal adhesion kinase 1 (Homo sapiens) (UniProt Q05397); assay: Inhibition of FAK at 10 uM
[15] = target: Serine/threonine-protein kinase PLK1 (Homo sapiens) (UniProt P53350); assay: Inhibition of PLK1 at 10 uM
[16] = target: Tyrosine-protein kinase receptor UFO (Homo sapiens) (UniProt P30530); assay: Inhibition of AXL at 10 uM
Sequence of Tyrosine-protein kinase receptor UFO (Homo sapiens) (P30530 whole entry): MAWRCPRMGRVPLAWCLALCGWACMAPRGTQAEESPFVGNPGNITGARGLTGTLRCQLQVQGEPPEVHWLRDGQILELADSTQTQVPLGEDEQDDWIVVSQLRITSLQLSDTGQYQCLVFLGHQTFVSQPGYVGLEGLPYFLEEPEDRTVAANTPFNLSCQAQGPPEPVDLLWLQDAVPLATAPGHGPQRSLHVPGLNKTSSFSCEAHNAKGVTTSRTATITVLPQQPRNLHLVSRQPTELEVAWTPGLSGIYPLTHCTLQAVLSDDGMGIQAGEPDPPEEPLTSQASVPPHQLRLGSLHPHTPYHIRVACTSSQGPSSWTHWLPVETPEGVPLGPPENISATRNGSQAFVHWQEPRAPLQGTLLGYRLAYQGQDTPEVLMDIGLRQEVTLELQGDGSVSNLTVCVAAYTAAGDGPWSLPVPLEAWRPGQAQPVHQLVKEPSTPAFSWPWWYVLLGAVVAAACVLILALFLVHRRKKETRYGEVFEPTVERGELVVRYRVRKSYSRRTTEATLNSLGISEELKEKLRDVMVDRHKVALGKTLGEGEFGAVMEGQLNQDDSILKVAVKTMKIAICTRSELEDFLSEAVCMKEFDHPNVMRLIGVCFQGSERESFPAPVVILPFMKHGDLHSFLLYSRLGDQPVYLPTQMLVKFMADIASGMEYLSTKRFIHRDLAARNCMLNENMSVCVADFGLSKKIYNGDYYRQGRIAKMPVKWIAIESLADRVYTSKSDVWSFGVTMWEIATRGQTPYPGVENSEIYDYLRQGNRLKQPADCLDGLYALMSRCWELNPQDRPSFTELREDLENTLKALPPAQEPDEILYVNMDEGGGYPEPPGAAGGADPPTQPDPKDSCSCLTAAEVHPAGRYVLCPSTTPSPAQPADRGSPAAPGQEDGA

[17] = target: Serine/threonine-protein kinase N1 (Homo sapiens) (UniProt Q16512); assay: Inhibition of PRK1 at 10 uM
[18] = target: Casein kinase II subunit alpha (Homo sapiens) (UniProt P68400); assay: Inhibition of CK2alpha1 at 10 uM

T1 sequence (Q16539 whole entry): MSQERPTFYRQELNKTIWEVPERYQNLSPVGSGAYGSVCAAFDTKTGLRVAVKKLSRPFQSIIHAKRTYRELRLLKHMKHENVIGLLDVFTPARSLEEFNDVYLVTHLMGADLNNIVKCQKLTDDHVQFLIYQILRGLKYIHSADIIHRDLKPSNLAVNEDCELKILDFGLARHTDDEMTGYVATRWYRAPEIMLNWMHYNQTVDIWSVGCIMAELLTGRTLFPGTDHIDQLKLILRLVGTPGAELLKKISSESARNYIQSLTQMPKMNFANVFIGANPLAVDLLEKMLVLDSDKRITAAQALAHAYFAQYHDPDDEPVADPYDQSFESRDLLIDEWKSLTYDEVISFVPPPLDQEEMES

CC1(C)OC[C@@H](COc2ccc3c(c2)CCc2cc(Nc4ccc(F)cc4F)ccc2C3=O)O1
IC50 [1]: 0.36 µM | IC50 [2]: 123 µM | inhibition [3]: inactive | inhibition [4]: inactive | inhibition [5]: inactive | inhibition [6]: inactive | inhibition [7]: inactive | inhibition [8]: inactive | inhibition [9]: inactive | inhibition [10]: inactive | inhibition [11]: inactive | inhibition [12]: inactive | inhibition [13]: inactive | inhibition [14]: inactive | inhibition [15]: inactive | inhibition [16]: inactive | inhibition [17]: inactive | inhibition [18]: inactive

O=C1c2ccc(Nc3ccc(F)cc3F)cc2CCc2ccc(OCCCN3CCOCC3)cc21
IC50 [1]: 0.008 µM | IC50 [2]: 0.08 µM | inhibition [3]: inactive | inhibition [4]: inactive | inhibition [5]: inactive | inhibition [6]: inactive | inhibition [7]: inactive | inhibition [8]: inactive | inhibition [9]: inactive | inhibition [10]: inactive | inhibition [11]: inactive | inhibition [12]: inactive | inhibition [13]: inactive | inhibition [14]: inactive | inhibition [15]: inactive | inhibition [16]: inactive | inhibition [17]: inactive | inhibition [18]: inactive

COc1ccc2c(c1)C(=O)c1ccc(Nc3cc(F)cc(F)c3F)cc1CC2
IC50 [1]: 0.05 µM | IC50 [2]: 4.3 µM | inhibition [3]: inactive | inhibition [4]: inactive | inhibition [5]: inactive | inhibition [6]: inactive | inhibition [7]: inactive | inhibition [8]: inactive | inhibition [9]: inactive | inhibition [10]: inactive | inhibition [11]: inactive | inhibition [12]: inactive | inhibition [13]: inactive | inhibition [14]: inactive | inhibition [15]: inactive | inhibition [16]: inactive | inhibition [17]: inactive | inhibition [18]: inactive

O=C1c2ccc(Nc3ccc(F)cc3F)cc2CCc2c(OC[C@H](O)CO)cccc21
IC50 [1]: 0.02 µM | IC50 [2]: 100 µM | inhibition [3]: inactive | inhibition [4]: inactive | inhibition [5]: inactive | inhibition [6]: inactive | inhibition [7]: inactive | inhibition [8]: inactive | inhibition [9]: inactive | inhibition [10]: inactive | inhibition [11]: inactive | inhibition [12]: inactive | inhibition [13]: inactive | inhibition [14]: inactive | inhibition [15]: inactive | inhibition [16]: inactive | inhibition [17]: inactive | inhibition [18]: inactive

COc1cccc2c1CCc1cc(Nc3ccc(F)cc3F)ccc1C2=O
IC50 [1]: 0.08 µM | IC50 [2]: 78.7 µM | inhibition [3]: inactive | inhibition [4]: inactive | inhibition [5]: inactive | inhibition [6]: inactive | inhibition [7]: inactive | inhibition [8]: inactive | inhibition [9]: inactive | inhibition [10]: inactive | inhibition [11]: inactive | inhibition [12]: inactive | inhibition [13]: inactive | inhibition [14]: inactive | inhibition [15]: inactive | inhibition [16]: inactive | inhibition [17]: inactive | inhibition [18]: inactive

O=C1c2ccc(Nc3ccc(F)cc3F)cc2CCc2ccc(OCCCO)cc21
IC50 [1]: 0.008 µM | IC50 [2]: 0.19 µM | inhibition [3]: inactive | inhibition [4]: inactive | inhibition [5]: inactive | inhibition [6]: inactive | inhibition [7]: inactive | inhibition [8]: inactive | inhibition [9]: inactive | inhibition [10]: inactive | inhibition [11]: inactive | inhibition [12]: inactive | inhibition [13]: inactive | inhibition [14]: inactive | inhibition [15]: inactive | inhibition [16]: inactive | inhibition [17]: inactive | inhibition [18]: inactive

COc1ccc2c(c1)C(=O)c1ccc(Nc3ccccc3Cl)cc1CC2
IC50 [1]: 0.56 µM | IC50 [2]: 4.6 µM | inhibition [3]: inactive | inhibition [4]: inactive | inhibition [5]: inactive | inhibition [6]: inactive | inhibition [7]: inactive | inhibition [8]: inactive | inhibition [9]: inactive | inhibition [10]: inactive | inhibition [11]: inactive | inhibition [12]: inactive | inhibition [13]: inactive | inhibition [14]: inactive | inhibition [15]: inactive | inhibition [16]: inactive | inhibition [17]: inactive | inhibition [18]: inactive

O=C1c2ccc(Nc3ccc(F)cc3F)cc2CCc2c(O)cccc21
IC50 [1]: 0.02 µM | IC50 [2]: 37.3 µM | inhibition [3]: inactive | inhibition [4]: inactive | inhibition [5]: inactive | inhibition [6]: inactive | inhibition [7]: inactive | inhibition [8]: inactive | inhibition [9]: inactive | inhibition [10]: inactive | inhibition [11]: inactive | inhibition [12]: inactive | inhibition [13]: inactive | inhibition [14]: inactive | inhibition [15]: inactive | inhibition [16]: inactive | inhibition [17]: inactive | inhibition [18]: inactive

O=C1c2ccc(Nc3ccc(F)cc3F)cc2CCc2ccc(OC3CCOCC3)cc21
IC50 [1]: 0.06 µM | IC50 [2]: 0.53 µM | inhibition [3]: inactive | inhibition [4]: inactive | inhibition [5]: inactive | inhibition [6]: inactive | inhibition [7]: inactive | inhibition [8]: inactive | inhibition [9]: inactive | inhibition [10]: inactive | inhibition [11]: inactive | inhibition [12]: inactive | inhibition [13]: inactive | inhibition [14]: inactive | inhibition [15]: inactive | inhibition [16]: inactive | inhibition [17]: inactive | inhibition [18]: inactive
